From paper PMC6178348, “Intranasal delivery of a Fas-blocking peptide attenuates Fas-mediated apoptosis in brain ischemia” (Scientific Reports, 2018)
Peptide text beside a SMILES is read from it.

Tests used:
normal rat brain tissue = assay: H&E and TUNEL staining of brain sections of normal non-ischemic rats after IN inoculation; type: in vivo; details: H&E and TUNEL stained sections, N = 6 per group
Description: Brain pathology was analyzed by incubating 2 mm thick brain slices in 2% 2,3,5-triphenyltetrazolium chloride (TTC staining, Sigma) and measuring the infarct volume after fixation using Image J software as previously described. Paraffin-embedded brain sections were also subjected to H&E staining and immunohistochemistry after with an antibody to rat Fas (ab82419, Abcam). Apoptosis in de-paraffinized, rehydrated brain sections was analyzed by TUNEL staining using the In Situ Cell Death Detection Kit (Roche, Germany) in accordance with the manufacturer’s instructions.
(A) Regional cerebral blood flow (rCBF) in rat’s subject to MCAO. The cerebral blood flow was measured during ligation of CCA, occlusion of MCA and after reperfusion (N=6 per group) and a 9 fold reduction was considered as a confirmation of ischemic stroke injury. (B) Bio-distribution of IN inoculated ctr-FBP-A488 or FBP-A488 at the indicated time points in normal non-ischemic rats that constitute a control group (N=3 per group). Mock treated animals were inoculated with PBS. (C) Representative hematoxylin and eosin (H&E) (upper panel) and TUNEL (lower panel) stained paraffin embedded sections from normal rat inoculated with PBS (Mock), ctr-FBP or FBP […]
change in tissue morphology and toxicity. Scale bare represents 100µm. ctr-FBP-A488- Alexa488 labeled control peptide, FBP-A488- Alexa488 labeled Fas-blocking peptide.

[1] = Brain biodistribution of intranasally inoculated A488-labeled peptide in normal and MCAO rats; type: in vivo, Sprague–Dawley rats; details: intranasal (POD), MCAO rats; fluorescence imaging
From the text: Figure 3 IN delivered FBP localizes to Fas-expressing brain regions in the MCAO rat model of focal ischemia. (A) Immunohistochemistry for Fas expression in ischemic rat brain after MCAO. Representative images of deparaffinized coronal brain sections from normal or ischemic rats stained with anti-Fas antibody at the designated times post-MCAO are shown. Representative images (upper panel) and cumulative data (lower panel) depicting fluorescence intensities measured in arbitrary pixel values relative to that at the 12 h ‘normal’ rats. Scale bar = 50 µm. The data represent mean ± SD (N = 6 per group). *P < 0.05 at individual time-points, Mann-Whitney U test, ^###P < 0.001; Cumulative data, Two-way ANOVA. […] Representative images (upper panel) and cumulative data (lower panel) depicting fluorescence intensities measured in arbitrary pixel values relative to and normalized based on fluorescence intensities in normal group. […]
For bio-distribution studies, A488-conjugated FBP was intranasally (IN) administered at 500 μg (1.4 mg/kg) in a final volume of 50 μL (25 μL in each nare) using the POD at 12 h post-MCAO and fluorescence analyzed at designated time points in isolated organs using Image Station 4000 mm (Carestream Rochester, NY) or by flow cytometry of single cell suspensions on a FACS Calibur™ (BD Bioscience, San Jose, CA) and analyzed using the Flowjo software. […]

| SMILES | Change in brain tissue morphology and toxicity in normal rats (normal rat brain tissue) | Clearance of peptide from brain after IN delivery [1] |
| --- | --- | --- |
| N[C@@H](Cc1ccc(O)cc1)C(=O)N[C@@H](CS)C(=O)N[C@@H](CC(=O)O)C(=O)N[C@@H](CCC(=O)O)C(=O)N[C@@H](Cc1c[nH]cn1)C(=O)N[C@@H](Cc1ccccc1)C(=O)N[C@@H](CS)C(=O)N[C@@H](Cc1ccc(O)cc1)C(=O)O [FBP] (H-YCDEHFCY-OH) | did not shows any change in tissue morphology and toxicity | – |
| CC(C)[C@H](NC(=O)[C@@H](NC(=O)[C@H](CO)NC(=O)[C@H](CC(N)=O)NC(=O)[C@H](CS)NC(=O)[C@@H](N)Cc1ccc(O)cc1)[C@@H](C)O)C(=O)N[C@@H](CS)C(=O)N[C@@H](Cc1ccc(O)cc1)C(=O)O [ctr-FBP] (H-YCNSTVCY-OH) | did not shows any change in tissue morphology and toxicity | cleared within a few hours of treatment |
